{"source": "patent US20200276145A1", "about": "“REDUCING SIDE EFFECTS OF SHORT ACTING NO DONORS” (G. POHL-BOSKAMP GMBH & CO. KG, priority 2016, published 2020)", "key": {"[1]": {"conditions": "after oral administration; cited from earlier work"}, "[2]": {"test": "Phase IIa forced-titration trial of nitroglycerin sublingual powder in PAOD patients, interim analysis of headache (Example 3)", "assay_type": "in vivo, human", "conditions": "for Headache days (%): of study days corrected by drop-out days", "experimental": "The patients are advised to take the dosages in the morning, noon and evening so that the short acting NO donor is administered in an intermittent manner.\nParticipants report adverse effects during the study with headache being one of the adverse effects.\nThe study has not yet been finalized but an interim analysis regarding headache as an adverse effect of the study drug has been performed (FIG. 2, Table 1-3).\nAt the time point of the interim analysis the study was still blinded, so with regard to patients' reported adverse event headache it could not be distinguished between the frequency of headache in the verum and the placebo group.\nAs the titration of the study medication takes place in the first 3 weeks, the analysis is focused on reported headache in the first three weeks plus in week 4 to also monitor possible late or ongoing side effects.\nThe analysis includes 35 participants so far which are at different time points of the study protocol. In FIG. 1 the individual headache days of the 35 participants are shown. Some participants have already reached the end of the 12-week treatment period and are in the follow-up period, some participants are still on treatment, but all participants […] have surpassed the titration phase and are on the final dosage of 0.7 mg GTN."}, "[3]": {"test": "Individual dose titration of sublingual nitroglycerin, side effects (Examples 1 and 2)", "assay_type": "in vivo, human"}, "[4]": {"conditions": "total of 2453 study days so far"}, "[5]": {"conditions": "weeks 1-4, of 927 corrected study days"}}, "note": "Values joined by “and” are separate entries in the source; they are usually repeats but may differ in a detail not shown here. Equal entries are not always repeated."}
{"smiles": "O=[N+]([O-])O[C@@H]1CO[C@H]2[C@@H]1OC[C@@H]2O", "note": "[isosorbide mononitrate]", "values": [{"measurement": "Halftime", "setting": "[1]", "value": "around 5 hours"}]}
{"smiles": "O=[N+]([O-])OCC(CO[N+](=O)[O-])O[N+](=O)[O-]", "note": "[nitroglycerin]", "values": [{"measurement": "Remaining share of participant headache days when the 3 participants are excluded", "setting": "[2]; 3 participants with possible chronic headache or migraine excluded", "value": 15, "unit": "%"}, {"measurement": "Possibly headache related drop-outs", "setting": "[2]; during the titration in the first 4 weeks", "value": "one"}, {"measurement": "Headache days of the 3 participants with possible chronic headache or migraine background", "setting": "[2]; first 4 weeks", "value": 82, "unit": "days"}, {"measurement": "Participants in whom the headache lasted more than a week", "setting": "[2]; first 4 weeks", "value": 5, "unit": "participants"}, {"measurement": "Share of headache days due to the 3 participants with possible chronic headache or migraine background", "setting": "[2]; first 4 weeks", "value": 65, "unit": "%"}, {"measurement": "Participants with headache on a single day", "setting": "[2]; first 4 weeks, not during the first three days, of 35", "value": 6, "unit": "participants"}, {"measurement": "Participants with headache that lasted more than one day", "setting": "[2]; first 4 weeks, of 35", "value": 6, "unit": "participants"}, {"measurement": "Additional participants dropped out due to headache", "setting": "[2]; further course of the therapy", "value": 2, "unit": "participants"}, {"measurement": "Overall headache frequency in the present study", "setting": "[2]; interim analysis, blinded", "value": "below 30%"}, {"measurement": "Headache days recorded for the 3 participants with continuous headache", "setting": "[2]; overall study", "value": "209 days and 212 days"}, {"measurement": "Share of total headache days due to the 3 participants with continuous headache", "setting": "[2]; overall study", "value": 85, "unit": "%"}, {"measurement": "Participants that have headache during the first days of treatment", "setting": "[2]; starting dose 0.3 mg GTN", "value": 5, "unit": "participants"}, {"measurement": "Percentage of participants that have headache during the first days of treatment", "setting": "[2]; starting dose 0.3 mg GTN", "value": 14.3, "unit": "%"}, {"measurement": "Participant headache days recorded so far (overall study)", "setting": "[2]; [4]", "value": "245 days and 251 days"}, {"measurement": "Percentage of headache days of total study days so far", "setting": "[2]; [4]", "value": 10, "unit": "%"}, {"measurement": "Participants with possible chronic headache or migraine history", "setting": "[2]; week 1", "value": 3}, {"measurement": "Headache corrected by participants with possible chronic headache or migraine history (%)", "setting": "[2]; week 1, 0.3 mg GTN", "value": 20, "unit": "%"}, {"measurement": "Participant headache days corrected by participants with possible chronic headache or migraine history (%)", "setting": "[2]; week 1, 0.3 mg GTN", "value": 7.8, "unit": "%"}, {"measurement": "Headache (%) of participants", "setting": "[2]; week 1, 0.3 mg GTN, blinded", "value": 28.6, "unit": "%"}, {"measurement": "Headache days (%)", "setting": "[2]; week 1, 0.3 mg GTN", "value": 15.5, "unit": "%"}, {"measurement": "Participants with possible chronic headache or migraine history", "setting": "[2]; week 2", "value": 3}, {"measurement": "Headache corrected by participants with possible chronic headache or migraine history (%)", "setting": "[2]; week 2, 0.5 mg GTN", "value": 11.4, "unit": "%"}, {"measurement": "Participant headache days corrected by participants with possible chronic headache or migraine history (%)", "setting": "[2]; week 2, 0.5 mg GTN", "value": 4.2, "unit": "%"}, {"measurement": "Headache (%) of participants", "setting": "[2]; week 2, 0.5 mg GTN, blinded", "value": 20, "unit": "%"}, {"measurement": "Headache (%) of participants", "setting": "[2]; week 2, 0.5 mg GTN, blinded, listed as GTN", "value": 20.0, "unit": "%"}, {"measurement": "Headache days (%)", "setting": "[2]; week 2, 0.5 mg GTN", "value": 13.0, "unit": "%"}, {"measurement": "Change of headache frequency as a result of the increased dosage", "setting": "[2]; week 2, 3 or 4 versus week 1", "value": "did not monitor an increased headache frequency"}, {"measurement": "Participants with possible chronic headache or migraine history", "setting": "[2]; week 3", "value": 3}, {"measurement": "Headache corrected by participants with possible chronic headache or migraine history (%)", "setting": "[2]; week 3, 0.7 mg GTN", "value": 5.7, "unit": "%"}, {"measurement": "Participant headache days corrected by participants with possible chronic headache or migraine history (%)", "setting": "[2]; week 3, 0.7 mg GTN", "value": 3.1, "unit": "%"}, {"measurement": "Headache (%) of participants", "setting": "[2]; week 3, 0.7 mg GTN, blinded", "value": 14.3, "unit": "%"}, {"measurement": "Headache days (%)", "setting": "[2]; week 3, 0.7 mg GTN", "value": 12.3, "unit": "%"}, {"measurement": "Participants with possible chronic headache or migraine history", "setting": "[2]; week 4", "value": 3}, {"measurement": "Headache corrected by participants with possible chronic headache or migraine history (%)", "setting": "[2]; week 4, 0.7 mg GTN", "value": 0, "unit": "%"}, {"measurement": "Participant headache days corrected by participants with possible chronic headache or migraine history (%)", "setting": "[2]; week 4, 0.7 mg GTN", "value": 0, "unit": "%"}, {"measurement": "Headache (%) of participants", "setting": "[2]; week 4, 0.7 mg GTN, blinded", "value": 8.6, "unit": "%"}, {"measurement": "Headache days (%)", "setting": "[2]; week 4, 0.7 mg GTN", "value": 9.7, "unit": "%"}, {"measurement": "Headache days during the first 4 weeks", "setting": "[2]; [5]", "value": "118 days and 127 days"}, {"measurement": "Overall percentage of headache days during the first 4 weeks", "setting": "[2]; [5]", "value": 12.7, "unit": "%"}, {"measurement": "Side effects", "setting": "[3]; Example 1, final dosage 0.7 mg after weekly increase 0.15-0.3-0.5-0.7 mg", "value": "without side effects"}, {"measurement": "Side effects", "setting": "[3]; Example 1, person, approximately 0.15 mg GTN TID sublingual powder", "value": "no headache or other known GTN side effects"}, {"measurement": "Side effects", "setting": "[3]; Example 1, sublingual nitroglycerin in a therapeutic dose, no titration", "value": "severe headache"}, {"measurement": "Side effects", "setting": "[3]; Example 2, 0.15 mg TID", "value": "no nausea or headache or other known GTN side effects"}, {"measurement": "Side effects", "setting": "[3]; Example 2, final dosage 0.4 mg TID after weekly increase 0.15-0.3-0.4 mg", "value": "without side effects"}, {"measurement": "Side effects", "setting": "[3]; Example 2, person, initial dose 0.4 mg sublingual, no titration", "value": "nausea and mild headache"}]}
